The values that follow come from patent US20220281841A1, “ETHYNYLHETEROCYCLES AS RHO-ASSOCIATED COILED-COIL KINASE (ROCK) INHIBITORS” (Angion Biomedica Corp., priority 2019, published 2022).

SMILES strings stand for the structures. Structures can show the parent of a compound that is named as a salt.

One experiment concerns the target T1, ROCK2 (Homo sapiens, UniProt O75116).
T1 construct: purchased DiscoverX (KINOMEscan KdELECT service); host or cells: E. coli BL21-derived (T7 phage) or HEK-293
As to the kind of experiment: ROCK2 kinase binding affinity, DiscoverX KINOMEscan KdELECT. Conditions: for ROCK 2 Selectivity: ROCK2 over ROCK1, from Kd values, N/C = not calculated; for Kd: equilibrium dissociation constant, 11-point 3-fold dilution series, read-out: Kd (μM) ROCK2. The procedure:
(§1) 1. ROCK1 and ROCK2 kinase assays: The ROCK1 and ROCK2 kinase binding affinities of compounds in this invention were determined by DiscoverX's KINOMEscan™ KdELECT technology (https://www.discoverx.com/kinomescan-elect-kinase-screening-and-profiling-services): Kinase-tagged T7 phage strains were prepared in an E. coli host derived from the BL21 strain. E. coli were grown to log-phase and infected with T7 phage and incubated with shaking at 32° C. until lysis. The lysates were centrifuged and filtered to remove cell debris. The remaining kinases were produced in HEK-293 cells and subsequently tagged with DNA for qPCR detection. Streptavidin-coated magnetic beads were treated with biotinylated small molecule ligands for 30 minutes at room temperature to generate affinity resins for kinase assays. The liganded beads were blocked with excess biotin and washed with blocking buffer (SeaBlock (Pierce), 1% BSA, 0.05% Tween 20, 1 mM DTT) to remove unbound ligand and to reduce nonspecific binding. […] Test compounds were prepared as 111X stocks in 100% DMSO. Kds were determined using an 11-point 3-fold compound dilution series with three DMSO control points. […] The compounds were then diluted directly into the assays such that the final concentration of DMSO was 0.9%. All reactions performed in polypropylene 384-well plate. Each was a final volume of 0.02 ml. […] The kinase concentration in the eluates was measured by qPCR.

In a further experiment the target is T2, ROCK1 (Homo sapiens, UniProt Q13464).
T2 construct: purchased DiscoverX (KINOMEscan KdELECT service); host or cells: E. coli BL21-derived (T7 phage) or HEK-293
Description: ROCK1 kinase binding affinity, DiscoverX KINOMEscan KdELECT. To be noted: equilibrium dissociation constant, 11-point 3-fold dilution series. The method, then:
as §1

One may read the Kd as the free concentration of one partner at which half of the binding sites on the other are occupied at equilibrium, for simple one-to-one binding.

T2 sequence (Q13464 whole entry): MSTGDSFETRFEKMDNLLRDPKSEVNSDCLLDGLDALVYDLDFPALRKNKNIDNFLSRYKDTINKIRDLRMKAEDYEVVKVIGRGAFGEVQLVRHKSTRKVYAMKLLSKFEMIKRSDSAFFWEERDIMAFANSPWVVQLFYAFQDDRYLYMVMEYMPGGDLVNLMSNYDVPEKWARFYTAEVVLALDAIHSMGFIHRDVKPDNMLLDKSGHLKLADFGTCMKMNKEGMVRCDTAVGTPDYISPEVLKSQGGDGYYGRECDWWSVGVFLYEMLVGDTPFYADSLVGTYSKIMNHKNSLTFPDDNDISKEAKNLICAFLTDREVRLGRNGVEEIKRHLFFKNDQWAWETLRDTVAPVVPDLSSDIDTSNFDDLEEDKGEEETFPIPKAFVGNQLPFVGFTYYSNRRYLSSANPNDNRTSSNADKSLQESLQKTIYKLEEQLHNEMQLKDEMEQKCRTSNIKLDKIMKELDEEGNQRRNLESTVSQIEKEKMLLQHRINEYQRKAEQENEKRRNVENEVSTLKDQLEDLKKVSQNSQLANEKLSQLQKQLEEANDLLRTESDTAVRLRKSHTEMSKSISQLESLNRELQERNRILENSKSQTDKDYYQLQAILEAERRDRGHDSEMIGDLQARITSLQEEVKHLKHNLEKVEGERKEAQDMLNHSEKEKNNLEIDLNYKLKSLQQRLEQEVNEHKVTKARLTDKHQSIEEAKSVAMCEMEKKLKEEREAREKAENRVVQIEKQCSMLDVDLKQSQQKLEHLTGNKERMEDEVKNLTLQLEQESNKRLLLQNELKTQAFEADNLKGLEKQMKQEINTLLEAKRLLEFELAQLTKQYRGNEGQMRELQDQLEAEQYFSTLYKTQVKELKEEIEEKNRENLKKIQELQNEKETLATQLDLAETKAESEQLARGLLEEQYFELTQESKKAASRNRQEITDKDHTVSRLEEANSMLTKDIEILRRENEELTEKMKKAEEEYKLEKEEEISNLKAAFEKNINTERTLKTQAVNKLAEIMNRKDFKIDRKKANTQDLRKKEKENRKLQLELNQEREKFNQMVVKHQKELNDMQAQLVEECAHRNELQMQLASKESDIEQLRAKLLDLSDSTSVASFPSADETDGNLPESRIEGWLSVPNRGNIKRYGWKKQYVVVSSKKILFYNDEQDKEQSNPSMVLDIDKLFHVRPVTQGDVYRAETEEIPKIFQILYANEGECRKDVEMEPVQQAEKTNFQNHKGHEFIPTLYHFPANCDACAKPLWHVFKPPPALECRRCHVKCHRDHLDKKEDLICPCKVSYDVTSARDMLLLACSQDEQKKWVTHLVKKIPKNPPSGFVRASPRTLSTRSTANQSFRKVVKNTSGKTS
T1 sequence (O75116 whole entry): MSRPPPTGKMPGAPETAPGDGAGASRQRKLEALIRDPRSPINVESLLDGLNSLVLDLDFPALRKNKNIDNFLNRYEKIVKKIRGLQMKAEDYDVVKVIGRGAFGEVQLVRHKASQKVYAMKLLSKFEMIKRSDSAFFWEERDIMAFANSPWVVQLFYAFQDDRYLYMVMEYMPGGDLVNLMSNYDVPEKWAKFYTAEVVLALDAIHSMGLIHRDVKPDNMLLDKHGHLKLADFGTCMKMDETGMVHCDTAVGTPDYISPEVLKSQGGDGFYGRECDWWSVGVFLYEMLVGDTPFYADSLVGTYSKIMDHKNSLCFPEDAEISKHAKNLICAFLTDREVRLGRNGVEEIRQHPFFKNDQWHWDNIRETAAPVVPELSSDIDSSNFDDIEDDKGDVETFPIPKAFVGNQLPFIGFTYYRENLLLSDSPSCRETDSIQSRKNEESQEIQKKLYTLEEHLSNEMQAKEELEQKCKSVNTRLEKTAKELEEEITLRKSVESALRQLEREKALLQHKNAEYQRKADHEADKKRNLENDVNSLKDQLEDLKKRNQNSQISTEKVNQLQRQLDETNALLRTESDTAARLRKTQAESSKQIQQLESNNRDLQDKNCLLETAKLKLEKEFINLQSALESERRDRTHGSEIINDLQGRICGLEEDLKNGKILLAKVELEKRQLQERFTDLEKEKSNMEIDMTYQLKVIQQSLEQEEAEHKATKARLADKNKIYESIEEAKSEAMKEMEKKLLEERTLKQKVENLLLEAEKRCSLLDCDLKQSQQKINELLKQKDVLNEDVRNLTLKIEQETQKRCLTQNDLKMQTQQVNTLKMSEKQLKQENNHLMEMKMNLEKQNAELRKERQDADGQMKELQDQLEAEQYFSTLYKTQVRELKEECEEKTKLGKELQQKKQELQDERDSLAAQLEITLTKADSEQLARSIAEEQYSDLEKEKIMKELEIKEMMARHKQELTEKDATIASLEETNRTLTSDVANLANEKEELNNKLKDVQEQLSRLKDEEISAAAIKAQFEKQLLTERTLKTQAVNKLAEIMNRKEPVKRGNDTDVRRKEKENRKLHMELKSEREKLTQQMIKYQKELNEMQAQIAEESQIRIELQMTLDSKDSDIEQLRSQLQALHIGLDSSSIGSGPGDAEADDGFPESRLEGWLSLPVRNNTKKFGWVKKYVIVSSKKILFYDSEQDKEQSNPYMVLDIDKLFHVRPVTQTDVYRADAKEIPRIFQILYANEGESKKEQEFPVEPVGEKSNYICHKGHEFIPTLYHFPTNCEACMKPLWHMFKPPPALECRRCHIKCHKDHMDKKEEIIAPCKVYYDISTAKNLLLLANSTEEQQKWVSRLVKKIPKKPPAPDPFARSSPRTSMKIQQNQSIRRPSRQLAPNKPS

As to `CN(C)C(=O)COc1ccc2c(c1)CN(c1nccc(-c3nccc(C#Cc4ccc5[nH]ncc5c4)n3)n1)C2` [Ex. 43, 2-((2-(4-((1H-Indazol-5-yl)ethynyl)-[2,4′-bipyrimidin]-2′-yl)isoindolin-5-yl)oxy)-N,N-dimethylacetamide], at ROCK2, the “ROCK 2 Selectivity” value is above 273 and the Kd was found to be 0.11 µM. Further, at ROCK1, the Kd was above 30 µM.
Consider `CNC(=O)COc1ccc2c(c1)CN(c1nccc(-c3nccc(C#Cc4ccc5[nH]ncc5c4)n3)n1)C2` [Ex. 44, 2-((2-(4-((1H-Indazol-5-yl)ethynyl)-[2,4′-bipyrimidin]-2′-yl)isoindolin-5-yl)oxy)-N-methylacetamide], for which, on ROCK2, the “ROCK 2 Selectivity” value was 32.6 and the equilibrium dissociation constant (Kd) was determined as 0.0023 µM. Also, the affinity on ROCK1, expressed as Kd, was 0.075 µM.
Consider `FC(F)(F)c1ccc2c(c1)CN(c1nccc(-c3nccc(C#Cc4ccc5[nH]ncc5c4)n3)n1)C2` [Ex. 45, 5-((2′-(5-(Trifluoromethyl)isoindolin-2-yl)-[2,4′-bipyrimidin]-4-yl)ethynyl)-1H-indazole trifluoroacetate], for which, on ROCK2, the “ROCK 2 Selectivity” value is 90.9. Besides, the dissociation constant (Kd) came out at 0.0011 µM at ROCK2 and 0.1 µM at ROCK1.
As to `O=C(COc1ccc2c(c1)CN(c1nccc(-c3nccc(C#Cc4ccc5[nH]ncc5c4)n3)n1)C2)NC1CC1` [Ex. 46, 2-((2-(4-((1H-Indazol-5-yl)ethynyl)-[2,4′-bipyrimidin]-2′-yl)isoindolin-5-yl)oxy)-N-cyclopropylacetamide trifluoroacetate], at ROCK2, the “ROCK 2 Selectivity” value is on record as 56.5 and the Kd came to 0.0023 µM. Besides, the Kd on ROCK1 came to 0.13 µM.
With `COCCOc1ccc2c(c1)CN(c1nccc(-c3nccc(C#Cc4ccc5[nH]ncc5c4)n3)n1)C2` [Ex. 47, 5-((2′-(5-(2-Methoxyethoxy)isoindolin-2-yl)-[2,4′-bipyrimidin]-4-yl)ethynyl)-1H-indazole], at ROCK2, the “ROCK 2 Selectivity” value is reported as 51.6 and the Kd worked out at 0.0031 µM. In addition, the Kd on ROCK1 was found to be 0.16 µM.
`C(#Cc1ccnc(-c2ccnc(N3CC(c4ccccc4)C3)n2)n1)c1ccc2[nH]ncc2c1` [Ex. 48, 5-((2′-(3-Phenylazetidin-1-yl)-[2,4′-bipyrimidin]-4-yl)ethynyl)-1H-indazole trifluoroacetate]: the “ROCK 2 Selectivity” value on ROCK2 was 36.7. Moreover, the Kd was 0.15 µM at ROCK2 and 5.5 µM on ROCK1.
Turning to `COC(=O)c1ccc(C2CN(c3nccc(-c4nccc(C#Cc5ccc6[nH]ncc6c5)n4)n3)C2)cc1` [Ex. 49, Methyl 4-(1-(4-((1H-indazol-5-yl)ethynyl)-[2,4′-bipyrimidin]-2′-yl)azetidin-3-yl)benzoate trifluoroacetate], the “ROCK 2 Selectivity” value on ROCK2 is above 120. The Kd was 0.25 µM at ROCK2 and above 30 µM on ROCK1.
Regarding `N#Cc1ccc(C2CN(c3nccc(-c4nccc(C#Cc5ccc6[nH]ncc6c5)n4)n3)C2)cc1` [Ex. 50, 4-(1-(4-((1H-Indazol-5-yl)ethynyl)-[2,4′-bipyrimidin]-2′-yl)azetidin-3-yl)benzonitrile trifluoroacetate], on ROCK2, the “ROCK 2 Selectivity” value is listed as 45 and the Kd was 0.12 µM. In addition, on ROCK1, the affinity, expressed as Kd, was 5.4 µM.
As to `O=C(O)c1ccc(C2CN(c3nccc(-c4nccc(C#Cc5ccc6[nH]ncc6c5)n4)n3)C2)cc1` [Ex. 51, 4-(1-(4-((1H-Indazol-5-yl)ethynyl)-[2,4′-bipyrimidin]-2′-yl)azetidin-3-yl)benzoic acid], on ROCK2, the “ROCK 2 Selectivity” value is on record as 73. For the same compound, the Kd came to 0.15 µM on ROCK2 and 11 µM on ROCK1.
In the case of `C(#Cc1ccnc(-c2ccnc(N3CCN(c4ccccc4)CC3)n2)n1)c1ccc2[nH]ncc2c1` [Ex. 52, 5-((2′-(4-Phenylpiperazin-1-yl)-[2,4′-bipyrimidin]-4-yl)ethynyl)-1H-indazole], on ROCK2, the “ROCK 2 Selectivity” value was 26.5. Further, the Kd was determined as 0.34 µM on ROCK2 and 9 µM on ROCK1.
Take `Fc1ccc(N2CCN(c3nccc(-c4nccc(C#Cc5ccc6[nH]ncc6c5)n4)n3)CC2)cc1` [Ex. 53, 5-((2′-(4-(4-Fluorophenyl)piperazin-1-yl)-[2,4′-bipyrimidin]-4-yl)ethynyl)-1H-indazole]: on ROCK2, the “ROCK 2 Selectivity” value is recorded as 58.8 and the dissociation constant (Kd) stood at 0.08 µM. Besides, at ROCK1, the affinity, expressed as Kd, was 4.7 µM.
As for `CCCN1CCN(c2nccc(-c3nccc(C#Cc4ccc5[nH]ncc5c4)n3)n2)CC1` [Ex. 54, 5-((2′-(4-Propylpiperazin-1-yl)-[2,4′-bipyrimidin]-4-yl)ethynyl)-1H-indazole trifluoroacetate], at ROCK2, the “ROCK 2 Selectivity” value is 10.2 and the Kd came to 0.45 µM. On ROCK1, this compound showed a Kd of 4.6 µM.
For the compound `C(#Cc1ccnc(-c2ccnc(N3CCC(c4ccccc4)CC3)n2)n1)c1ccc2[nH]ncc2c1` [Ex. 55, 5-((2′-(4-Phenylpiperidin-1-yl)-[2,4′-bipyrimidin]-4-yl)ethynyl)-1H-indazole], at ROCK2, the “ROCK 2 Selectivity” value is listed as 28.9 and the Kd came out at 0.9 µM. This compound also returned a Kd at ROCK1 of 26 µM.
Turning to `Fc1ccc(C2CCN(c3nccc(-c4nccc(C#Cc5ccc6[nH]ncc6c5)n4)n3)CC2)cc1` [Ex. 56, 5-((2′-(4-(4-Fluorophenyl)piperidin-1-yl)-[2,4′-bipyrimidin]-4-yl)ethynyl)-1H-indazole], the “ROCK 2 Selectivity” value on ROCK2 is on record as 35.6. Further, the Kd at ROCK2 came to 0.73 µM; on ROCK1 it was 26 µM.
For the compound `Clc1ccc(C2CN(c3nccc(-c4nccc(C#Cc5ccc6[nH]ncc6c5)n4)n3)C2)cc1` [Ex. 57, 5-((2′-(3-(4-Chlorophenyl)azetidin-1-yl)-[2,4′-bipyrimidin]-4-yl)ethynyl)-1H-indazole], the “ROCK 2 Selectivity” value at ROCK2 is given as 30.5. The Kd at ROCK2 was 0.22 µM; on ROCK1, 6.7 µM.
On the same counts, the results for `C(#Cc1ccnc(-c2ccnc(N3CCN(c4ncc[nH]4)CC3)n2)n1)c1ccc2[nH]ncc2c1` [Ex. 58, 5-((2′-(4-(1H-Imidazol-2-yl)piperazin-1-yl)-[2,4′-bipyrimidin]-4-yl)ethynyl)-1H-indazole] are 5, 0.32 µM and 1.6 µM.
As for `C(#Cc1ccnc(-c2ccnc(N3CCn4cnnc4C3)n2)n1)c1ccc2[nH]ncc2c1` [Ex. 59, 7-(4-((1H-Indazol-5-yl)ethynyl)-[2,4′-bipyrimidin]-2′-yl)-5,6,7,8-tetrahydro-[1,2,4]triazolo[4,3-a]pyrazine], at ROCK2, the “ROCK 2 Selectivity” value is on record as 21.3 and the Kd stood at 0.75 µM. This compound returned a Kd on ROCK1 of 16 µM.
`FC(F)(F)c1nnc2n1CCN(c1nccc(-c3nccc(C#Cc4ccc5[nH]ncc5c4)n3)n1)C2` [Ex. 60, 7-(4-((1H-Indazol-5-yl)ethynyl)-[2,4′-bipyrimidin]-2′-yl)-3-(trifluoromethyl)-5,6,7,8-tetrahydro-[1,2,4]triazolo[4,3-a]pyrazine]: the “ROCK 2 Selectivity” value at ROCK2 is reported as 47.1. Also, the Kd on ROCK2 is 0.21 µM; on ROCK1, 9.9 µM.
For the compound `Clc1ccc(N2CCN(c3nccc(-c4nccc(C#Cc5ccc6[nH]ncc6c5)n4)n3)CC2)cc1` [Ex. 61, 5-((2′-(4-(4-Chlorophenyl)piperazin-1-yl)-[2,4′-bipyrimidin]-4-yl)ethynyl)-1H-indazole], at ROCK2, the “ROCK 2 Selectivity” value is 44.9 and the Kd was determined as 0.49 µM. On ROCK1, this compound showed a Kd of 22 µM.
For `Oc1ccc(N2CCN(c3nccc(-c4nccc(C#Cc5ccc6[nH]ncc6c5)n4)n3)CC2)cc1` [Ex. 62, 4-(4-(4-((1H-Indazol-5-yl)ethynyl)-[2,4′-bipyrimidin]-2′-yl)piperazin-1-yl)phenol], on ROCK2, the “ROCK 2 Selectivity” value is recorded as 118.2 and the Kd came to 0.11 µM. This compound had a Kd at ROCK1 of 13 µM.
Turning to `C(#Cc1ccnc(-c2ccnc(N3CCN(c4nccs4)CC3)n2)n1)c1ccc2[nH]ncc2c1` [Ex. 63, 2-(4-(4-((1H-Indazol-5-yl)ethynyl)-[2,4′-bipyrimidin]-2′-yl)piperazin-1-yl)thiazole], on ROCK2, the “ROCK 2 Selectivity” value is above 90.9 and the Kd is 0.33 µM. At ROCK1, this compound yielded a Kd above 30 µM.
With `Cc1nnc2n1CCN(c1nccc(-c3nccc(C#Cc4ccc5[nH]ncc5c4)n3)n1)C2` [Ex. 64, 7-(4-((1H-Indazol-5-yl)ethynyl)-[2,4′-bipyrimidin]-2′-yl)-3-methyl-5,6,7,8-tetrahydro-[1,2,4]triazolo[4,3-a]pyrazine], on ROCK2, the “ROCK 2 Selectivity” value is on record as 10.3 and the Kd stood at 0.33 µM. This compound showed a Kd on ROCK1 of 3.4 µM.
For the compound `C(#Cc1ccnc(-c2ccnc(N3Cc4ncsc4C3)n2)n1)c1ccc2[nH]ncc2c1` [Ex. 65, 5-(4-((1H-Indazol-5-yl)ethynyl)-[2,4′-bipyrimidin]-2′-yl)-5,6-dihydro-4H-pyrrolo[3,4-d]thiazole], the “ROCK 2 Selectivity” value at ROCK2 is given as 142. In addition, the Kd at ROCK2 stood at 0.024 µM; on ROCK1, 3.4 µM.
In the same order, the values of `C(#Cc1ccnc(-c2ccnc(N3CCC(c4ccccc4)C3)n2)n1)c1ccc2[nH]ncc2c1` (stereo not drawn) [Ex. 69, 5-((2′-(3-Phenylpyrrolidin-1-yl)-[2,4′-bipyrimidin]-4-yl)ethynyl)-1H-indazole] are 36.2, 0.26 µM and 9.4 µM.
